Like-named read-outs stand apart in the source and are kept apart here.
Key:
E. coli Topoisomerase IV [1] = molecular target: T1, E. coli Topoisomerase IV (Escherichia coli, UniProt P0AFI2+P20083); test: biochemical; design: purchased John Innes Enterprises (Norwich, UK); conditions: read-out: Topo IV, R (relaxation reaction) IC50
Method: (§5) Topoisomerase IV-mediated relaxation assays and decatenation assays were performed as previously described (see Peng and Marians, 1993). […] Decatenation assays contained topoisomerase IV (4 nM), 40 mM Tris HCl pH 7.5 at 30° C., 6 mM MgCl2, 10 mM DTT, 1 mM spermidine.HCl, 100 mM potassium glutamate, 0.5 mM ATP, 0.5 mg/mL BSA, 200 ng of kinetoplast DNA, and inhibitor where appropriate.

E. coli Topoisomerase IV [2] = molecular target: T1, E. coli Topoisomerase IV; test: biochemical; assay type: biochemical; design: purchased John Innes Enterprises (Norwich, UK)
Method: as §5

E. coli Topoisomerase IV [3] = molecular target: T1, E. coli Topoisomerase IV; test: Topoisomerase IV-mediated decatenation assay; assay type: biochemical; design: purchased John Innes Enterprises
Method: Topoisomerase IV-mediated relaxation assays and decatenation assays were performed as previously described (see Peng and Marians, 1993). Relaxation assays contained topoisomerase IV (20 nM), 40 mM Tris.HCl pH 7.5 at 30° C., 6 mM MgCl2, 10 mM DTT, 1 mM spermidine.HCl, 20 mM KCl, 1 mM ATP, 0.5 mg/mL BSA, 4.6 nM of supercoiled pBR322 DNA and inhibitor where appropriate. Decatenation assays contained topoisomerase IV (4 nM), 40 mM Tris HCl pH 7.5 at 30° C., 6 mM MgCl2, 10 mM DTT, 1 mM spermidine.HCl, 100 mM potassium glutamate, 0.5 mM ATP, 0.5 mg/mL BSA, 200 ng of kinetoplast DNA, and inhibitor where appropriate.
(§1) All in vitro reactions were incubated at 37° C. for 30 minutes. The DMSO concentration in each reaction was kept constant at 3.33%. Reactions were quenched with the addition of an equal volume of phenol/chloroform/isoamyl alcohol (25:24:1) and one tenth volume of loading buffer containing 40% sucrose, 100 mM Tris.HCl pH 7.5, 100 mM EDTA, 2 mg/mL bromophenol blue. The proteins were precipitated by vortexing, followed by centrifugation for 5 minutes at 16 000 g. The aqueous phase was loaded onto 1% agarose gels in Tris-acetate and were electrophoresed at 60 V for three hours in Tris-acetate buffer. The gels were stained in 1 μg/mL ethidium bromide. The gels were visualised using UV light and were documented and analysed using Syngene software.

Human topoisomerase IIα [4] = molecular target: T2, Human topoisomerase IIα (Homo sapiens, UniProt P11388); test: Human topoisomerase IIα-mediated decatenation assay; assay type: biochemical; design: purchased TopoGEN Inc
Method: (§2) Human Topoisomerase IIα-mediated relaxation assays and decatenation assays were performed as per the manufacturer's instructions in a total of 20 μL. Relaxation assays contained Topoisomerase IIα (4.3 nM), 50 mM Tris.HCl pH 8,120 mM KCl, 10 mM MgCl2, 0.5 mM DTT, 0.5 mM ATP, 4.6 nM of supercoiled pBR322 DNA, and inhibitor where appropriate. Decatenation assays substituted the supercoiled DNA with 200 ng catenated kinetoplast DNA.
as §1

HT-29 cells [5] = test: cells; assay type: cell-based, human; conditions: Homo sapiens, HT-29; MTT, 24 hours; read-out: In vivo HT29 Cells (approximate IC50)
Method: (§3) Human cell cultures were initiated from frozen cell stocks (the gift of Dr J. Gavrilovic, UEA). The HT-29 line is derived from a colorectal adenocarcinoma while HeLa cells are derived from a cervical epithelial adenocarcinoma (see FIG. 35). Both human cell lines form adherent cultures and were maintained at 37° C. in T25 culture vessels as 10 mL cultures in CO2 Independent Media containing 10% foetal bovine serum (EU approved), 4 mM L-glutamine, penicillin/streptomycin (Invitrogen). A subcultivation ratio of 1:3 and 1:6 were maintained for HT-29 and HeLa lines respectively. Media was renewed every three days.
(§4) The assay to determine the effects of the heterocyclic compounds on mammalian cells is based on the cleavage of the yellow tetrazolium salt MTT to purple formazoan crystals by metabolically active cells (Roche). After incubation with MTT and solubilization, the resulting coloured solution is quantified using a scanning spectrophotometer. Each of the cell lines was trypsinised and resuspended in fresh media prior to transfer to sterile flat-bottomed microtitre plates (200 μL per well) and allowed to recover for 16 hours. Five thousand HT-29 or 7500 HeLa cells per 100 μL culture medium were incubated in the presence of the drugs in various concentrations (totalling 10 μL) for 24 hours. Cell viability was then determined by addition of MTT reagent (20 μL) in each well, as per manufacturer's instructions and incubated for a further 4 hours. Solubilization solution (100 μL) was added per well and the plates incubated overnight at 37° C. The plates were read in a spectrophotometer (scanning from 500-650 nm, signal peak at 570 nm). A representative result is illustrated in FIG. 36.

HeLa cells [6] = test: cells; assay type: cell-based, human; conditions: Homo sapiens, HeLa; MTT, 24 hours; read-out: In vivo HeLa Cells (approximate IC50)
Method: as §3, §4

E. coli [7] = test: In vivo E. coli activity (Table 5-C); assay type: cell-based; conditions: cell reads on: Active
Method: In vivo activity was tested using the bioassay developed by Sinha Roy, 1999, with some modifications. The Microcin-sensitive E. coli DH5α was used as the indicator strain. Lawns of cells were prepared by spreading 100 μL of a 10 mL LB culture grown at 37° C. overnight mixed with 3 mL of LSS, on LB+agar (10 g/L) plates. […] The plates were incubated at 37° C. overnight and halos of growth inhibition were qualitatively analyzed by determining their diameters (see FIG. 9).
Lawns of cells were prepared by spreading, on top of a LB+Agar plate, 3 ml of melted LSS medium (half-agar strength: 0.3 g Agar/50 ml LB) inoculated with 100 μl of a 10 ml LB overnight culture of E. coli cells grown at 37° C. Halo assays with MccB17 generally used a DH5α strain (Novagen) but the inventors used the standard E. coli strain (K12) because it is from this strain that the microcin B17-resistant mutant W751R was obtained. […] The plates were incubated at 37° C. overnight and growth inhibition was qualitatively analysed by measuring the diameter of each halo.
Haloassays were performed as described above.

E. coli [8] = test: In vivo E. coli (Table 5-C summary of haloassays); assay type: cell-based; conditions: number = not active up to this concentration
Method: Lawns of cells were prepared by spreading, on top of a LB+Agar plate, 3 ml of melted LSS medium (half-agar strength: 0.3 g Agar/50 ml LB) inoculated with 100 μl of a 10 ml LB overnight culture of E. coli cells grown at 37° C. […] The plates were incubated at 37° C. overnight and growth inhibition was qualitatively analysed by measuring the diameter of each halo.

HT-29 cells [9] = test: MTT cell viability assay, HT-29; assay type: cell-based, human; conditions: cell reads on: Active
Method: (§6) Human cell cultures were initiated from frozen cell stocks (the gift of Dr J. Gavrilovic, UEA). […] Both human cell lines form adherent cultures and were maintained at 37° C. in T25 culture vessels as 10 mL cultures in CO2 Independent Media containing 10% foetal bovine serum (EU approved), 4 mM L-glutamine, penicillin/streptomycin (Invitrogen). […] Media was renewed every three days.
(§7) After incubation with MTT and solubilization, the resulting coloured solution is quantified using a scanning spectrophotometer. […] Cell viability was then determined by addition of MTT reagent (20 μL) in each well, as per manufacturer's instructions and incubated for a further 4 hours. Solubilization solution (100 μL) was added per well and the plates incubated overnight at 37° C. The plates were read in a spectrophotometer (scanning from 500-650 nm, signal peak at 570 nm).

Human topoisomerase IIα [10] = molecular target: T2, Human topoisomerase IIα; test: Human Topoisomerase IIα-mediated relaxation assay; assay type: biochemical; design: purchased TopoGEN Inc. (Port Orange, Fla., USA); conditions: read-out: Topo IIα Human, R (relaxation reaction) IC50
Method: as §2, §1

HeLa cells [11] = test: MTT cell viability assay, HeLa; assay type: cell-based, human; conditions: cell reads on: Active
Method: as §6, §7

T1 sequence (P20083 whole entry): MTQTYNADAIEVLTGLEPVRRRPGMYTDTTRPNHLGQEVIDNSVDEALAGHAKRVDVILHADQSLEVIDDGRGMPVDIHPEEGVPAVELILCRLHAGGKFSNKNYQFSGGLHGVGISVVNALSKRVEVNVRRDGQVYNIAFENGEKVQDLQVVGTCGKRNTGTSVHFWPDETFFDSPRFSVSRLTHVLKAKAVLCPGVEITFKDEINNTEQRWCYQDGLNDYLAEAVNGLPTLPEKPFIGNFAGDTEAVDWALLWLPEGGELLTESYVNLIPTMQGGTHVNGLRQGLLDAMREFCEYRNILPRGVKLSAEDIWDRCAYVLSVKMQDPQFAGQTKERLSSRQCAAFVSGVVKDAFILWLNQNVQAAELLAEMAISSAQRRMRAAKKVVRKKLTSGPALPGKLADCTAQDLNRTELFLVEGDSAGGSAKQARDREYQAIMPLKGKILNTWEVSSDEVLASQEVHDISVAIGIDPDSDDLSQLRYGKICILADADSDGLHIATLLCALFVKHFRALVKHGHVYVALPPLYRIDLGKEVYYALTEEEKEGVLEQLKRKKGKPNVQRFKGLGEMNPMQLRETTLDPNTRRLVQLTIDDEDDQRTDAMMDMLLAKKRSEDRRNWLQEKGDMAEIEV
T1 sequence (P0AFI2 whole entry): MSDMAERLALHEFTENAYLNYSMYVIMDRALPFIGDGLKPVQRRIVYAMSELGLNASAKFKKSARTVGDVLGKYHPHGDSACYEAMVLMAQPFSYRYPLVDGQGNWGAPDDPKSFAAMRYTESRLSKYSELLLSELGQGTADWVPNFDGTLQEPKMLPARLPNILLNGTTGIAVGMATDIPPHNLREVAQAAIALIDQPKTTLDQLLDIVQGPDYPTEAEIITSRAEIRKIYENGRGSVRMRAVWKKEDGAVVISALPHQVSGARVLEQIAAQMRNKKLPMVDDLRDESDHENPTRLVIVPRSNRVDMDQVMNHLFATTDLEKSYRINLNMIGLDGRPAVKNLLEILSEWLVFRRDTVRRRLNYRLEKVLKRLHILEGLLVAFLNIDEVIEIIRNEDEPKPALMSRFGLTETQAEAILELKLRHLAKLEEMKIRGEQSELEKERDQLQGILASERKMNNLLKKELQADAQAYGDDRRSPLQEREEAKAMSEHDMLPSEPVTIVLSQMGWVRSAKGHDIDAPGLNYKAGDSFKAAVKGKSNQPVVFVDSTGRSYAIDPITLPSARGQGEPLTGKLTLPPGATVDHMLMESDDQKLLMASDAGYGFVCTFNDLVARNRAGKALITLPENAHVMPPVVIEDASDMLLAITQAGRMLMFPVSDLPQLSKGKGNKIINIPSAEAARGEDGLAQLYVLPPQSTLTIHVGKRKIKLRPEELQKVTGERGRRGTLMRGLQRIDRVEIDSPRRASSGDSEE
T2 sequence (P11388 whole entry): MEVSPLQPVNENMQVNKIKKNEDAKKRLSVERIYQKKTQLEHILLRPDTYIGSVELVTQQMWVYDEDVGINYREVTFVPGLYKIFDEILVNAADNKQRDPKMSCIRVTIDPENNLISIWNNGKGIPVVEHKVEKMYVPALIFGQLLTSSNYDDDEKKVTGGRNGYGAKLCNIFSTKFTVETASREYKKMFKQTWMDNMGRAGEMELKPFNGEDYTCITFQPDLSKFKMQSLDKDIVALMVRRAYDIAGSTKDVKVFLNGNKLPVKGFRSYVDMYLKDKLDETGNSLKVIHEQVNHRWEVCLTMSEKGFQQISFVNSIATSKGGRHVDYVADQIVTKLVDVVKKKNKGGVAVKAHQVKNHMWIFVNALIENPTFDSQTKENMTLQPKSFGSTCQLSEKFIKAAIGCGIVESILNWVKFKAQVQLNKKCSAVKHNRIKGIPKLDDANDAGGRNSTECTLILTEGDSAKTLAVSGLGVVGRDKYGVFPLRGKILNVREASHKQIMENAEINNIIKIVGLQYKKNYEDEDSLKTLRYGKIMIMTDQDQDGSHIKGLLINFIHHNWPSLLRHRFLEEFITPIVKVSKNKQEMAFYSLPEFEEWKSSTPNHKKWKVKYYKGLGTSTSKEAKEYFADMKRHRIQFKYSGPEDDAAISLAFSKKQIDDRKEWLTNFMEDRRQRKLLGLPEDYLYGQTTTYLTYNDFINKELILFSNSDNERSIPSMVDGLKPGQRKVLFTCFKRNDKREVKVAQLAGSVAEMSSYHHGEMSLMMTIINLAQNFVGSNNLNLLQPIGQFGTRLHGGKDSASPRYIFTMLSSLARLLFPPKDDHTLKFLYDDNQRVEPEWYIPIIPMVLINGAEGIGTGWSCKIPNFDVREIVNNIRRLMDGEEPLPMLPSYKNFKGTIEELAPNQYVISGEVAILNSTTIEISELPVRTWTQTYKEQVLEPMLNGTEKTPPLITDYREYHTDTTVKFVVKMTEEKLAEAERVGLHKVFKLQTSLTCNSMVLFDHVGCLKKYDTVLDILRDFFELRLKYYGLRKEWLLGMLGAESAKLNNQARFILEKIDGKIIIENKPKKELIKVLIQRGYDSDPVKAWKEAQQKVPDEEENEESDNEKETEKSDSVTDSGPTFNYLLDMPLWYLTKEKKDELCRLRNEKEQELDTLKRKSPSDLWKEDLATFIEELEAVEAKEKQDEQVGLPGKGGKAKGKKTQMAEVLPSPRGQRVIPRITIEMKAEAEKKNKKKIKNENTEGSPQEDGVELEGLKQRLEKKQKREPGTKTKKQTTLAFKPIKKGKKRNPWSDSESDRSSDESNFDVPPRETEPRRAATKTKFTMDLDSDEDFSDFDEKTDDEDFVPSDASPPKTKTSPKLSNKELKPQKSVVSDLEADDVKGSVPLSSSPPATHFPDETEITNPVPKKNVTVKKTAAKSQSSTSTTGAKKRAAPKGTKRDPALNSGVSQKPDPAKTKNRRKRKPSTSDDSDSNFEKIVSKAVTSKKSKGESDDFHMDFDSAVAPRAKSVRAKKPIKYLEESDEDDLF

CC(C)(C)OC(=O)NCc1nc(C(=O)O)co1 [#6]
IC50 (E. coli Topoisomerase IV [1]): > 300 µM
Topo IV, D (decatenation reaction) IC50 (E. coli Topoisomerase IV [2]): weakly
IC50 (E. coli Topoisomerase IV [2]; read-out: Topo IV, D (decatenation reaction) IC50): 200 µM
Decatenation activity of topoisomerase IV, sensitivity (E. coli Topoisomerase IV [3]): albeit weakly
Decatenation activity of eukaryotic topoisomerase IIα, sensitivity (Human topoisomerase IIα [4]): albeit weakly
IC50 (HT-29 cells [5]): > 75 µM
IC50 (HeLa cells [6]): > 75 µM
In vivo E. coli activity, up to 400 μM (E. coli [7]): Not
In vivo E. coli (E. coli [8]): (→400 μM)
In vivo HT29 Cells activity (HT-29 cells [9]): Not
IC50 (Human topoisomerase IIα [10]): > 250 µM
In vivo HeLa Cells activity (HeLa cells [11]): Not
